Test results taken from patent US20070009895A1, “Method of interaction analysis and interaction analyzer” (priority 2003, published 2007).

Biological target: human FKBP12 (Homo sapiens, UniProt P62942)
Details: Measurement 3; first solutions of two or three samples, one of them 100 μM FKBP12, others HSA
From the text: An apparatus for analyzing interactions in this example includes a column TSK super SW2000 for size exclusion chromatography (column size: 1.0 ID×10 mm, 1.0 ID×30 mm or 1.0 ID×100 mm, manufactured by Tosoh Corporation) for a separation channel 1. The apparatus for analyzing interactions also includes an auto injector HTC-PAL (manufactured by CTC Analytics AG) for a container section 3, and a LC pump (Agilent 1100, manufactured by Yokogawa) for an introduction device 4. The apparatus for analyzing interactions also includes an ion trap mass spectrometer LCQ deca XP (ThermoQuest) for a detection device 5.
The auto injector HTC-PAL (CTC Analytics AG) includes a sample loop of 5 μL or 10 μL, a syringe of 10 μL, and sample trays with a cooling unit. A first solution was introduced by 50 μL into a 2 mL screw vial with a conical insert of 100 μL inserted therein. A screw cap with a septum was put on the vial and the vial was placed in a 54 vial rack and the rack was set in one of the sample trays. A second solution was introduced by 40 μL into each well of a 384 well-microplate, and the microplate was covered with an aluminum seal and set in another sample tray. The sample trays were set at the temperature of 10 degrees C. […]

human FKBP12, sequence (P62942 whole entry): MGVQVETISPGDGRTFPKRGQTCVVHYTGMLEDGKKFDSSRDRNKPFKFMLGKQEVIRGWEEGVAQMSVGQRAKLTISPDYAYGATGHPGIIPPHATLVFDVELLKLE

## CC[C@@H]1/C=C(\C)C[C@H](C)C[C@H](OC)[C@H]2O[C@@](O)(C(=O)C(=O)N3CCCC[C@H]3C(=O)O[C@H](/C(C)=C/[C@@H]3CC[C@@H](O)[C@H](OC)C3)[C@H](C)[C@@H](O)CC1=O)[C@H](C)C[C@@H]2OC [Ascomycin]
  interaction with FKBP12 (peaks in mass chromatogram of the compound): interaction between Ascomycin and FKBP12 is able to be detected
